Test results as given in patent US20250197382A1, “KIF18A INHIBITOR” (WIGEN BIOMEDICINE TECHNOLOGY (SHANGHAI) CO., LTD., priority 2022, published 2025).

Target: Recombinant human KIF18A (1-467His-tagged) protein (Homo sapiens (Human), UniProt Q8NI77)
Assay: KIF18A enzyme assay (microtubule-stimulated ATPase activity, ADP-Glo)
Assay type: biochemical
Details: 30 nM KIF18A, ATP 75 μM, read-out: inhibitory activity against KIF18A IC50
Summary of the method: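 Baculovirus-expressed human KIF18A (1-467, His-tagged; 30 nM) preincubated 15 min at room temperature with compound (22-point 2-fold series) in pH 7.5 Tris buffer containing 30 μg/mL pig microtubules and 1 μM paclitaxel.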

Sequence of Recombinant human KIF18A (1-467His-tagged) protein (Q8NI77 1-467): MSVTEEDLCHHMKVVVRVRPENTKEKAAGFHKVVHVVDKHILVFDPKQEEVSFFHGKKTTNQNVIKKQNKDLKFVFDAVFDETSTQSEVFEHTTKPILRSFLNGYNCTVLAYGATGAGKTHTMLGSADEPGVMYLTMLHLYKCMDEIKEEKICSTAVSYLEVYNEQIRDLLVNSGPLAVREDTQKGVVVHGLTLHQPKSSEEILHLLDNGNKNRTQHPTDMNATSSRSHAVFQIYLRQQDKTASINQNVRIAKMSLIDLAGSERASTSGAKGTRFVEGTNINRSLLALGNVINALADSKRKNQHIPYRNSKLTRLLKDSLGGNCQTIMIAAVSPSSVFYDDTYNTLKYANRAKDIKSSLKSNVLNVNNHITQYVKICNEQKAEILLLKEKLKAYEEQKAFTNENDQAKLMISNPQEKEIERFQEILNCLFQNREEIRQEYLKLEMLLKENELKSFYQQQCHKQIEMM
Sequence of Recombinant human KIF18A (1-467His-tagged) protein (P02550 whole entry partner): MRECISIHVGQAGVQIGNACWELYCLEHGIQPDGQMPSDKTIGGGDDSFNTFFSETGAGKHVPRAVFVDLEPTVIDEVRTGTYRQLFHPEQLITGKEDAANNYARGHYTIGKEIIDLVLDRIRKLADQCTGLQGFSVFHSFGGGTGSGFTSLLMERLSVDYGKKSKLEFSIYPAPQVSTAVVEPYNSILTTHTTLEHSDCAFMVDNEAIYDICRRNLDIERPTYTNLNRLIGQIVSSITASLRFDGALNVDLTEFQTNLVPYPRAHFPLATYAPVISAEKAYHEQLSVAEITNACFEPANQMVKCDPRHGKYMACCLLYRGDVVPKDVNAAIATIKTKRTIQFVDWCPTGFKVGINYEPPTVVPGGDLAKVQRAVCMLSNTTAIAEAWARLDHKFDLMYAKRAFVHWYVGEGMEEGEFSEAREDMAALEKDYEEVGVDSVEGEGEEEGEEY
Sequence of Recombinant human KIF18A (1-467His-tagged) protein (P02554 whole entry partner): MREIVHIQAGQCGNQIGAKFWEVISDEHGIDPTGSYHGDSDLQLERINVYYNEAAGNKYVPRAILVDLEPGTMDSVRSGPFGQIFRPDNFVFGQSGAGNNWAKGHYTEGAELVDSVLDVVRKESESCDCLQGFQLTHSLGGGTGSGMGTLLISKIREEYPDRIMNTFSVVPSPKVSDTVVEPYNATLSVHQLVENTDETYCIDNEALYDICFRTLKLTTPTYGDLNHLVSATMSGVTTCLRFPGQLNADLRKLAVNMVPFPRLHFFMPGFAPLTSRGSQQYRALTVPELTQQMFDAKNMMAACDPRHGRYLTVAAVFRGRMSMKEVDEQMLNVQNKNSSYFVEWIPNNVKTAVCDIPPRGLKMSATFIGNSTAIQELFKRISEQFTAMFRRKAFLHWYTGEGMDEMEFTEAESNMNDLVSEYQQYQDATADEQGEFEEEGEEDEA

IC50, ≤ 100 nM:
C[C@@H]1CN(c2cc(C(=O)Nc3ccc(NS(=O)(=O)CCO)cc3N3CCC4(CC3)CC4)cc3ccn(C)c23)CCO1 [Compound 418], C[C@H]1CN(c2cc(C(=O)Nc3ccc(NS(=O)(=O)CCO)cc3N3CCC4(CC3)CC4)cc3ccn(C)c23)CCO1 [Compound 419], Cn1ccc2cc(C(=O)Nc3ccc(NS(=O)(=O)CCO)cc3N3CCC4(CC3)CC4)cc(N3CC(F)(F)C3)c21 [Compound 420], Cn1ccc2cc(C(=O)Nc3ccc(NS(=O)(=O)CCO)cc3N3CCC4(CC3)CC4)cc(OCCC(F)(F)F)c21 [Compound 421], Cn1ccc2cc(C(=O)Nc3ccc(NS(=O)(=O)CCO)cc3N3CCC4(CC3)CC4)cc(N3CCC4(CC4)C3)c21 [Compound 422], Cn1ccc2cc(C(=O)Nc3ccc(NS(=O)(=O)CCO)cc3N3CCC4(CC3)CC4)cc(OC3CCC3)c21 [Compound 423], Cn1ccc2cc(C(=O)Nc3ccc(NS(=O)(=O)CCO)cc3N3CCC4(CC3)CC4)cc(N3CCC(C)(F)C3)c21 (centres unmarked) [Compound 424], Cn1ccc2cc(C(=O)Nc3ccc(NS(=O)(=O)CCO)cc3N3CCC4(CC3)CC4)cc(N3CCC(F)CC3)c21 [Compound 425], Cn1ccc2cc(C(=O)Nc3ccc(NS(=O)(=O)CCO)cc3N3CCC4(CC3)CC4)cc(N3CC4CC4C3)c21 (centres unmarked) [Compound 426], Cn1ccc2cc(C(=O)Nc3ccc(NS(=O)(=O)CCO)cc3N3CCC4(CC3)CC4)cc(NC(C)(C)CO)c21 [Compound 427], Cn1ccc2cc(C(=O)Nc3ccc(NS(=O)(=O)CCO)cc3N3CCC4(CC3)CC4)cc(N3CCOCC3)c21 [Compound 428], C[C@@H](CO)S(=O)(=O)Nc1ccc(NC(=O)c2cc(N3CCC(F)(F)CC3)c3c(ccn3C)c2)c(N2CCC3(CC2)CC3)c1 [Compound 429], C[C@H](CO)S(=O)(=O)Nc1ccc(NC(=O)c2cc(N3CCC(F)(F)CC3)c3c(ccn3C)c2)c(N2CCC3(CC2)CC3)c1 [Compound 430], C[C@@H]1CN(c2cc(C(=O)Nc3ccc(NS(=O)(=O)[C@@H](C)CO)cc3N3CCC4(CC3)CC4)cc3ccn(C)c23)CCO1 [Compound 431], C[C@@H]1CN(c2cc(C(=O)Nc3ccc(NS(=O)(=O)[C@H](C)CO)cc3N3CCC4(CC3)CC4)cc3ccn(C)c23)CCO1 [Compound 432], Cn1ccc2cc(C(=O)Nc3ccc(S(=O)(=O)NCCO)cc3N3CCC4(CC3)CC4)cc(N3CCC(F)(F)CC3)c21 [Compound 433], C[C@@H]1CN(c2cc(C(=O)Nc3ccc(S(=O)(=O)NCCO)cc3N3CCC4(CC3)CC4)cc3ccn(C)c23)CCO1 [Compound 434], C[C@H]1CN(c2cc(C(=O)Nc3ccc(S(=O)(=O)NCCO)cc3N3CCC4(CC3)CC4)cc3ccn(C)c23)CCO1 [Compound 435], Cn1ccc2cc(C(=O)Nc3ccc(S(=O)(=O)NCCO)cc3N3CCC4(CC3)CC4)cc(N3CC(F)(F)C3)c21 [Compound 436], Cn1ccc2cc(C(=O)Nc3ccc(S(=O)(=O)NCCO)cc3N3CCC4(CC3)CC4)cc(OCCC(F)(F)F)c21 [Compound 437], Cn1ccc2cc(C(=O)Nc3ccc(S(=O)(=O)NCCO)cc3N3CCC4(CC3)CC4)cc(N3CCC4(CC4)C3)c21 [Compound 438], Cn1ccc2cc(C(=O)Nc3ccc(S(=O)(=O)NCCO)cc3N3CCC4(CC3)CC4)cc(OC3CCC3)c21 [Compound 439], Cn1ccc2cc(C(=O)Nc3ccc(S(=O)(=O)NCCO)cc3N3CCC4(CC3)CC4)cc(N3CCC(C)(F)C3)c21 (centres unmarked) [Compound 440], Cn1ccc2cc(C(=O)Nc3ccc(S(=O)(=O)NCCO)cc3N3CCC4(CC3)CC4)cc(N3CCC(F)CC3)c21 [Compound 441], Cn1ccc2cc(C(=O)Nc3ccc(S(=O)(=O)NCCO)cc3N3CCC4(CC3)CC4)cc(N3CC4CC4C3)c21 (centres unmarked) [Compound 442], Cn1ccc2cc(C(=O)Nc3ccc(S(=O)(=O)NCCO)cc3N3CCC4(CC3)CC4)cc(NC(C)(C)CO)c21 [Compound 443], Cn1ccc2cc(C(=O)Nc3ccc(S(=O)(=O)NCCO)cc3N3CCC4(CC3)CC4)cc(N3CCOCC3)c21 [Compound 444], C[C@@H](CO)NS(=O)(=O)c1ccc(NC(=O)c2cc(N3CCC(F)(F)CC3)c3c(ccn3C)c2)c(N2CCC3(CC2)CC3)c1 [Compound 445], C[C@H](CO)NS(=O)(=O)c1ccc(NC(=O)c2cc(N3CCC(F)(F)CC3)c3c(ccn3C)c2)c(N2CCC3(CC2)CC3)c1 [Compound 446], C[C@@H]1CN(c2cc(C(=O)Nc3ccc(S(=O)(=O)N[C@@H](C)CO)cc3N3CCC4(CC3)CC4)cc3ccn(C)c23)CCO1 [Compound 447], C[C@H](CO)NS(=O)(=O)c1ccc(NC(=O)c2cc(N3CCO[C@H](C)C3)c3c(ccn3C)c2)c(N2CCC3(CC2)CC3)c1 [Compound 448], Cn1ccc2cc(NC(=O)c3ccc(NS(=O)(=O)CCO)cc3N3CCC4(CC3)CC4)nc(N3CCC(F)(F)CC3)c21 [Compound 449], C[C@@H]1CN(c2nc(NC(=O)c3ccc(NS(=O)(=O)CCO)cc3N3CCC4(CC3)CC4)cc3ccn(C)c23)CCO1 [Compound 450], C[C@H]1CN(c2nc(NC(=O)c3ccc(NS(=O)(=O)CCO)cc3N3CCC4(CC3)CC4)cc3ccn(C)c23)CCO1 [Compound 451], Cn1ccc2cc(NC(=O)c3ccc(NS(=O)(=O)CCO)cc3N3CCC4(CC3)CC4)nc(N3CC(F)(F)C3)c21 [Compound 452], Cn1ccc2cc(NC(=O)c3ccc(NS(=O)(=O)CCO)cc3N3CCC4(CC3)CC4)nc(OCCC(F)(F)F)c21 [Compound 453], Cn1ccc2cc(NC(=O)c3ccc(NS(=O)(=O)CCO)cc3N3CCC4(CC3)CC4)nc(N3CCC4(CC4)C3)c21 [Compound 454], Cn1ccc2cc(NC(=O)c3ccc(NS(=O)(=O)CCO)cc3N3CCC4(CC3)CC4)nc(OC3CCC3)c21 [Compound 455], Cn1ccc2cc(NC(=O)c3ccc(NS(=O)(=O)CCO)cc3N3CCC4(CC3)CC4)nc(N3CCC(C)(F)C3)c21 (centres unmarked) [Compound 456], Cn1ccc2cc(NC(=O)c3ccc(NS(=O)(=O)CCO)cc3N3CCC4(CC3)CC4)nc(N3CCC(F)CC3)c21 [Compound 457], Cn1ccc2cc(NC(=O)c3ccc(NS(=O)(=O)CCO)cc3N3CCC4(CC3)CC4)nc(N3CC4CC4C3)c21 (centres unmarked) [Compound 458], Cn1ccc2cc(NC(=O)c3ccc(NS(=O)(=O)CCO)cc3N3CCC4(CC3)CC4)nc(NC(C)(C)CO)c21 [Compound 459], Cn1ccc2cc(NC(=O)c3ccc(NS(=O)(=O)CCO)cc3N3CCC4(CC3)CC4)nc(N3CCOCC3)c21 [Compound 460], C[C@@H](CO)S(=O)(=O)Nc1ccc(C(=O)Nc2cc3ccn(C)c3c(N3CCC(F)(F)CC3)n2)c(N2CCC3(CC2)CC3)c1 [Compound 461], C[C@H](CO)S(=O)(=O)Nc1ccc(C(=O)Nc2cc3ccn(C)c3c(N3CCC(F)(F)CC3)n2)c(N2CCC3(CC2)CC3)c1 [Compound 462], C[C@@H]1CN(c2nc(NC(=O)c3ccc(NS(=O)(=O)[C@@H](C)CO)cc3N3CCC4(CC3)CC4)cc3ccn(C)c23)CCO1 [Compound 463], C[C@@H]1CN(c2nc(NC(=O)c3ccc(NS(=O)(=O)[C@H](C)CO)cc3N3CCC4(CC3)CC4)cc3ccn(C)c23)CCO1 [Compound 464], Cn1ccc2cc(NC(=O)c3ccc(S(=O)(=O)NCCO)cc3N3CCC4(CC3)CC4)nc(N3CCC(F)(F)CC3)c21 [Compound 465], C[C@@H]1CN(c2nc(NC(=O)c3ccc(S(=O)(=O)NCCO)cc3N3CCC4(CC3)CC4)cc3ccn(C)c23)CCO1 [Compound 466], C[C@H]1CN(c2nc(NC(=O)c3ccc(S(=O)(=O)NCCO)cc3N3CCC4(CC3)CC4)cc3ccn(C)c23)CCO1 [Compound 467], Cn1ccc2cc(NC(=O)c3ccc(S(=O)(=O)NCCO)cc3N3CCC4(CC3)CC4)nc(N3CC(F)(F)C3)c21 [Compound 468], Cn1ccc2cc(NC(=O)c3ccc(S(=O)(=O)NCCO)cc3N3CCC4(CC3)CC4)nc(OCCC(F)(F)F)c21 [Compound 469], Cn1ccc2cc(NC(=O)c3ccc(S(=O)(=O)NCCO)cc3N3CCC4(CC3)CC4)nc(N3CCC4(CC4)C3)c21 [Compound 470], Cn1ccc2cc(NC(=O)c3ccc(S(=O)(=O)NCCO)cc3N3CCC4(CC3)CC4)nc(OC3CCC3)c21 [Compound 471], Cn1ccc2cc(NC(=O)c3ccc(S(=O)(=O)NCCO)cc3N3CCC4(CC3)CC4)nc(N3CCC(C)(F)C3)c21 (centres unmarked) [Compound 472], Cn1ccc2cc(NC(=O)c3ccc(S(=O)(=O)NCCO)cc3N3CCC4(CC3)CC4)nc(N3CCC(F)CC3)c21 [Compound 473], Cn1ccc2cc(NC(=O)c3ccc(S(=O)(=O)NCCO)cc3N3CCC4(CC3)CC4)nc(N3CC4CC4C3)c21 (centres unmarked) [Compound 474], Cn1ccc2cc(NC(=O)c3ccc(S(=O)(=O)NCCO)cc3N3CCC4(CC3)CC4)nc(CC(C)(C)CO)c21 [Compound 475], Cn1ccc2cc(NC(=O)c3ccc(S(=O)(=O)NCCO)cc3N3CCC4(CC3)CC4)nc(N3CCOCC3)c21 [Compound 476], C[C@@H](CO)NS(=O)(=O)c1ccc(C(=O)Nc2cc3ccn(C)c3c(N3CCC(F)(F)CC3)n2)c(N2CCC3(CC2)CC3)c1 [Compound 477], C[C@H](CO)NS(=O)(=O)c1ccc(C(=O)Nc2cc3ccn(C)c3c(N3CCC(F)(F)CC3)n2)c(N2CCC3(CC2)CC3)c1 [Compound 478], C[C@@H]1CN(c2nc(NC(=O)c3ccc(S(=O)(=O)N[C@@H](C)CO)cc3N3CCC4(CC3)CC4)cc3ccn(C)c23)CCO1 [Compound 479]
